# Results as given in patent publication US6699842B1, “Dominant negative deletion mutants of C-jun and their use in the prevention and treatment of cancer” (The United States of America as represented by the …, priority 1994, dated 2004).
# Key:
# Format in all cases: cell-based, mouse
# [1] = system: AP-1; assay: CAT assay with stromelysin promoter reporter P750TRCAT (AP-1 dependent) in JB6 P+ Cl 41 cells; details: for inhibition of TPA-induced CAT activity: 8 hours
# From the text: The plasmid constructs used in the following examples were as follows: P750TRCAT is a CAT reporter construct containing 750 bp of the rat stromelysin promoter driving the heterogolous gene chloramphenicol acetyl-transferase (CAT). This construct contains an AP-1 binding sequence at position −70 (Matrisian, L. M. et al. (1991) Am. J. Medic. Sci., 302: 157-162, Kerr, L. D. et al. (1988) Science., 242: 1424-1427, McDonnell, S. E. et al. (1990) Mol. Cell. Biol. 105 4284-4293). The mTRE-CAT reporter is a site-directed mutant with 2 point mutations in the AP-1 site (Matrisian, L. M. et al. (1991) Am. J. Medic. Sci., 302: 157-162) and the mPEA3-CAT reporter is a site-directed mutant in which point mutations in each of the PEA3 sites at position −208 to −200 and −191 to −199 of the stromelysin promoter were introduced using a protocol provided with the site-directed mutagenesis kit of Amersham Corp. (Arlington Heights, Ill.) and an oligonucleotide having SEQ ID NO.:1 GCAAGAAGCATTTCTTGG.
# In brief, JB6 Cl 41 (P^+) cells transfected for 4-5 hours using a standard calcium phosphate transfection procedure (Sambrook, J. et al. (1989) “Molecular Cloning, A Laboratory Manual” Cold Spring Harbor Laboratory Press, Cold Spring Harbor, N.Y.) with 10 μg of one of three CAT reporter plasmid DNAs, P750TRCAT, mTRE-CAT or mPEA3-CAT and 10 μg of sheared genomic DNA isolated from Cl 41 cells were then changed to medium containing 2% fetal calf serum and twenty-four to forty-two hours later, were treated with either 0.1% of DMSO, 10 ng/ml of TPA or 10 ng/ml EGF for eight hours prior to preparation of total cell extracts. CAT enzyme activity was assayed using a diffusion-based CAT assay according to the protocol provided by the manufacturers (New England Nuclear, Del.). The results are expressed as the rate of accumulation of [^14C]-acetylated product relative to solvent controls (DMSO).
# In order to determine whether TPA-induced CAT activity in JB6 P^+ cells is capable of being abolished, TPA induced CAT activity was measured in the presence of the known AP-1 inhibitors retinoic acid (RA) and fluocinolone acetonide (FA). In brief, JB6 P^+ Cl 41 cells were transfected with 10 μg of P750TRCAT and 10 μg of sheared genomic DNA from Cl 41 cells as in Example 1. 24-42 hours after transfection, cells were then exposed for 8 hours to either 0.1% DMSO, […] (TPA), 10^−7 M fluocinolone acetonide (FA) in the absence of 10 ng/ml TPA (FA7), 10^−9, 10^−8 and 10^−7 M FA in the presence of 10 ng/ml TPA (TFA9, TFA8, TFA7, respectively), 10^−5 M retinoic acid (RA) in the absence of 10 ng/ml TPA (RA5), or to 10^−7, 10^−6 and 10^−5 M RA in the presence of 10 ng/ml TPA (TRA7, TRA6, TRA5 respectively). Following the above treatments, total cell extracts were prepared and CAT enzyme activity was assayed as in Example 1. As before, the results are expressed as the rate of accumulation of ^14C-acetylated product relative to solvent controls.
# In order to determine whether an overexpressed TAM67 protein could repress TPA-induced CAT activity in JB6 P^+ cells, eight TAM67 clonal transfectants (M1-M8) and three neo-only clonal transfectants (N1-N3) were transfected with 10 μg of P750TRCAT reporter plasmid using the standard calcium phosphate protocol described in. Example 1. Forty two hours after transfection with P750TRCAT, the cells were exposed to either 0.01% DMSO (closed bar, FIG. 5A), or 10 ng/ml TPA (crossed-hatched bar, FIG. 5A) or, to water (closed bar, FIG. 5B) or 10 ng/ml EGF (cross-hatched bar, FIG. 5B) for eight hours. Total cell extracts were then prepared from the treated cells and assayed for CAT activity as described in Example 1.
# [2] = system: JB6 P+ Cl 41 cells; assay: soft agar transformation assay, JB6 P+ Cl 41 cells; details: 3 ng/ml TPA, 14 days in 0.33% agar, FA 10^−9-10^−7 M, RA 10^−9-10^−6 M
# Description: (§1) In order to test whether the same concentration ranges of inhibitors shown in FIGS. 2A and 2B to repress TPA-induced AP-1 activity could also block TPA-induced transformation, a soft agar transformation assay was carried out on JB6 P^+ Cl 41 (cross-hatched bar) or JB6 P^+ Cl 41.5a (closed bar) cells exposed in 0.33% agar for 14 days to 0.01% DMSO alone, 3 ng/ml TPA alone (TPA), 10^−7 or 10^−8 M FA alone (FA7 and FA8, respectively), 10^−6 M RA alone (RA6) 3 ng/ml TPA in the presence of 10^−7-10^−9 M FA (TFA7, TFA8, TFA9) or to 3 ng/ml TPA in 10^−6-10^−9 M retinoic acid (TRA6, TRA7, TRA8, TRA9). Treated cells were scored for colonies after 14 days in agar and transformation response was expressed as the number of soft agar colonies/10^4 suspended cells. […] In agreement with an earlier observation by De Benedetti et al. ((1991) Cancer Res., 51:1158-1164), the sensitivity of Cl 41.5a cells to antipromotion by RA appeared to be greater than that observed with the Cl 41 cells. More importantly, the concentration-dependent range of FA effective in blocking TPA-induced transformation appeared identical to that range which was active in blocking TPA-induced CAT activity by FA (10^−9 M to 10^−7 M FA, see TFA7, TFA8 and TFA9 in FIG. 2A). […]
# [3] = system: JB6 P+ Cl 41.5a cells; assay: soft agar transformation assay, JB6 P+ Cl 41.5a cells; details: 3 ng/ml TPA, 14 days in 0.33% agar, FA 10^−9-10^−7 M, RA 10^−9-10^−6 M
# Description: as §1
# [4] = system: c-Jun; assay: immunoprecipitation and densitometry of c-Jun protein in stable JB6 transfectants; details: 10 ng/ml, fifteen hours, TAM67 or Neo-only transfectants
# Description: Three TAM67 clonal transfectants (M4, M3, M6) and one neo-only clonal transfectant (N1) were treated for fifteen hours with either 10 ng/ml TPA (T), 10 ng/ml EGF (E), or 0.1% DMSO (D) prior to metabolic labelling for two hours with 0.2 mCi/ml ^35S -methionine (Amersham, Rockford, Ill.) (Sun, Y. et al. (1993) Mol. Carcinogenesis, 8: 49-57). Cellular lysates were then collected and immunoprecipitations using polyclonal rabbit c-jun antibody (AB-1 antibody, Oncogene Science) were carried out overnite at 4° C. (Sun et al. (1993)). These immunoprecipitates were then analyzed by electrophoresis on 12.5% SDS polyacrylamide gels and these gels are shown in FIG. 4.
smiles,measurement,setting,value
"CC1=C(/C=C/C(C)=C/C=C/C(C)=C/C(=O)O)C(C)(C)CCC1 [RA, retinoic acid]",inhibition of TPA-induced CAT activity,"[1]; 10^−7-10^−5 M RA with 10 ng/ml TPA, P750TRCAT",90-100%
"CC1(C)O[C@@H]2C[C@H]3[C@@H]4C[C@H](F)C5=CC(=O)C=C[C@]5(C)[C@@]4(F)[C@@H](O)C[C@]3(C)[C@]2(C(=O)CO)O1 [FA, Fluocinolone acetonide]",inhibition of TPA-induced CAT activity,"[1]; 10^−9-10^−7 M FA with 10 ng/ml TPA, P750TRCAT",dose-dependent inhibition
same,TPA-induced transformation (soft agar colonies/10^4 suspended cells),[2],blocked TPA-induced transformation in a concentration-dependent manner
same,TPA-induced transformation (soft agar colonies/10^4 suspended cells),[3],blocked TPA-induced transformation in a concentration-dependent manner
"CCCCCCCCCCCCCC(=O)O[C@@H]1[C@@H](C)[C@@]2(O)[C@@H](C=C(CO)C[C@]3(O)C(=O)C(C)=C[C@@H]23)[C@@H]2C(C)(C)[C@]12OC(C)=O [TPA, 12-O-tetradecanoyl phorbol 13-acetate]",increase in AP-1 dependent CAT activity in neo-only transfectants,"[1]; 10 ng/ml, eight hours, N1-N3 transfectants, P750TRCAT",3 to 4.5 fold
same,"CAT activity relative to uninduced cells, P750TRCAT reporter","[1]; 10 ng/ml, eight hours, P750TRCAT-transfected JB6 P+ Cl 41 cells",about 2 fold
same,"CAT activity relative to uninduced cells, mPEA3-CAT reporter","[1]; 10 ng/ml, eight hours, mPEA3-CAT-transfected JB6 P+ Cl 41 cells (PEA3 sites mutated)",about 2 fold
same,"inducibility of CAT activity, mTRE-CAT reporter","[1]; 10 ng/ml, eight hours, mTRE-CAT-transfected cells (AP-1 binding site mutated)",loss of inducibility
same,"c-Jun protein levels (43 kDa band, densitometric analysis)",[4],no significant differences
